# Measurements published in US8796327B2, “Method for inhibiting production of cytokines of T helper cell type II and/or inhibiting production of chemokines using brazilin” (China Medical University, priority 2010, dated 2014).
# Legend:
# IL-4 [1] = assay: ELISA of IL-4 in supernatant of EL-4 T lymphoma cells; assay type: cell-based, mouse; conditions: EL-4 cells
# Experimental: First, in an incubator containing 5 vol % of CO2 at 37° C., EL-4 mouse T lymphoma cells (commercially available from ATCC, Manassas, Va., America) were cultured in the DMEM culture medium (containing 10 wt % of thermally deactivated FBS), and were sub-cultured at a ratio of 1:3.
# Then, at a density of 5×10^5 counts/ml, the T lymphoma cells were bred in a six-well culture dish, and at the 0th minute, brazilin of different concentrations (0.3, 1, 3, 10, or 30 micromole (μM)) was added into the cell culture solution at an amount of 1 μl/ml-cell culture solution. Then, the cells were put into the incubator to be cultured therein. 30 minutes later, at an amount of 1 μl/ml-cell culture solution, 5 μg/ml PMA and cAMP at a 250 mmol concentration were added to the cell culture solution to stimulate the expression of IL-4 and IL-5 of the T lymphoma cells. During the process of cell culture, the trypan blue exclusion assay was employed to observe effect of the brazilin on the cell viability, results of which are shown in Table 1 and FIG. 1.
# At 4° C., the T lymphoma cells obtained from Experiment A were centrifugally rotated at a rotational speed of 1000 rpm and at 4° C. for 5 minutes, and the supernatant was collected and analyzed for cytokines.
# An enzyme-linked immunosorbent assay (ELISA) kit (commercially available from R&D Systems, Inc., America) was used to analyze the expression of IFN-γ, IL-4, IL-5, and eotaxin cytokines in the aforesaid supernatant, results of which are shown in Table 2, Table 3, FIG. 2, and FIG. 3.
# In Experiment B and the following Experiment C, all experimental data are presented in form of “mean±standard deviation”, and statistical discrepancy was analyzed by means of the One-way ANOVA and Newman-keuls post-hoc tests, in which it is considered that there is statistical discrepancy if p<0.05.
# IL-4 [2] = assay: ELISA of IL-4 in bronochial alveolar lavage fluid, mice with asthma (OVA); assay type: in vivo, BALB/c mice; conditions: for IL-4 concentration (pico-gram/ml): i.p. or i.t., OVA-sensitized BALB/c mice
# Experimental: (§1) In Example 2, mice with asthma were used to conduct in vivo experiments, and ovalbumin (OVA) was used as an allergen.
# The mice were sensitized (or challenged) according to the steps shown in FIG. 9 (see Lee et al., Lentiviral-mediated GATA-3 RNAi decreases allergic airway inflammation and hyperresponsiveness. Molecular Therapy, 2008; 16:60-65, which is incorporated herein in its entirety by reference). First, 50 μg OVA (using 2 mg alumina (Alum, Alumlmuject, Pierce Chemical, Rockford, Ill., USA) as an adjuvant) was injected into six to eight-week-old BALB/c female mice (from National Laboratory Animal Center, Taiwan) by intraperitoneal injection (i.p.). At 0th, 14th, and 28th day, the mice were injected with OVA at the same dosage. Before the administration of OVA at the forty-first and the forty-second days, different dosages of brazilin (high dose: 430 μg/mice; low dose: 43 μg/mice) were administrated to the mice by intraperitoneal injection (i.p.) or intratracheal instillation (i.t.). During the fortieth to the forty-second days, 100 μg OVA was dissolved in 40 μl PBS, and was administrated to the mice by intranasal instillation (i.n.) (once everyday, for three days). At the forty-third day, airway hyperresponsiveness of the mice was observed. […]
# In Experiment D, after 24 hours from the last administration of OVA into the noses of the mice, the mice were sacrificed, and the blood was collected from the orbital cavities of the mice. […] Cells obtained after the centrifugation were re-suspended in a 1 ml HBSS buffer solution, and the total cell number was counted with a hemocytometer.
# The bronochial alveolar lavage fluid collected in Experiment E was centrifuged at 4° C. and with a revolution speed of 400 g for 10 minutes. After the supernatant was collected, the expression of eotaxin, IL-4, IL-5, and IFN-γ was analyzed with an ELISA kit (R&D Systems, Inc., USA). […]
# mice with asthma = assay: Airway (pulmonary) resistance determination, invasive body plethysmography with methacholine; assay type: in vivo, BALB/c mice; conditions: for pulmonary resistance Rrs (cm H2O/ml): OVA-sensitized BALB/c mice
# Experimental: as §1
# The mice were sensitized (or challenged) according to the steps shown in FIG. 9 (see Lee et al., Lentiviral-mediated GATA-3 RNAi decreases allergic airway inflammation and hyperresponsiveness. Molecular Therapy, 2008; 16:60-65, which is incorporated herein in its entirety by reference). First, 50 μg OVA (using 2 mg alumina (Alum, Alumlmuject, Pierce Chemical, Rockford, Ill., USA) as an adjuvant) was injected into six to eight-week-old BALB/c female mice (from National Laboratory Animal Center, Taiwan) by intraperitoneal injection (i.p.). At 0th, 14th, and 28th day, the mice were injected with OVA at the same dosage. Before the administration of OVA at the forty-first and the forty-second days, different dosages of brazilin (high dose: 430 μg/mice; low dose: 43 μg/mice) were administrated to the mice by intraperitoneal injection (i.p.) or intratracheal instillation (i.t.). During the fortieth to the forty-second days, 100 μg OVA was dissolved in 40 μl PBS, and was administrated to the mice by intranasal instillation (i.n.) (once everyday, for three days). At the forty-third day, airway hyperresponsiveness of the mice was observed. At the forty-sixth day, the mice were sacrificed and used to conduct the following Experiments E to G During the above procedure, it was observed if any toxicity response arises after the administration of brazilin to the mice. In this experiment, the mice administrated with OVA were used as a positive control, and the mice not administrated with OVA were used as a negative control.
# Airway (pulmonary) resistance determination was carried out by conducting invasive body plethysmography according to the Glaab's method (see Glaab et al., Repetitive measurements of pulmonary mechanics to inhaled cholinergic challenge in spontaneously breathing mice. J Appl Physiol, 2004; 97:1104-1111, which is incorporated herein in its entirety by reference). In this method, the increase of pulmonary resistance of mice administrated with methacholine is observed.
# First, BALB/c mice were anesthetized with 70 to 90 mg/kg-body weight of pentobarbital sodium (Sigma), and the trachea of the mice were cut to generate a bore, and the mice were subjected to external ventilation (150 breaths/minute) with a ventilator (Harvard Rodent Ventilator, model 683, Southnatick, Mass., USA) controlled by a computer to maintain the tidal volume at 0.3 ml and the terminal expiring positive pressure at 3 to 4 cm-H2O. A PE-50 pipeline was inserted into the gullets and reached to the chest position of the mice, and the pipeline was connected to a pressure transducer (LDS GOULD, Valley View, Ohio, USA), and the pressure, air flow rate, and the variation of air capacity in the lungs of the mice were recorded. Software (Model PNM-PCT100W, LDS PONEMAH Physiology Platform, LDS GOULD) was used to analyze the airway resistance. An atomizer was used to generate methacholine spray, which was then administrated to the mice via the ventilator. The data was obtained by deducting the pulmonary resistance (0.45 cm H2O.s.ml^−1) gained by the pipeline inserted into the trachea of the mice, wherein pulmonary resistance RL ratio=RL after methacholine nebulization/RL after PBS nebulization.
smiles,measurement,setting,value
Oc1ccc2c(c1)OC[C@]1(O)Cc3cc(O)c(O)cc3[C@H]21 [brazilin],expression of protein of IL-4 cytokine,IL-4 [1]; result in words,inhibited
same,Concentration of IL-4 (pico-gram/ml),IL-4 [1]; brazilin 0.3 μM + PMA + cAMP,23.93 ± 2.214 pico-gram/ml
same,Concentration of IL-4 (pico-gram/ml),IL-4 [1]; brazilin 1 μM + PMA + cAMP,22.49 ± 1.969 pico-gram/ml
same,Concentration of IL-4 (pico-gram/ml),IL-4 [1]; brazilin 3 μM + PMA + cAMP,23.45 ± 2.693 pico-gram/ml
same,Concentration of IL-4 (pico-gram/ml),IL-4 [1]; brazilin 10 μM + PMA + cAMP,23.13 ± 2.297 pico-gram/ml
same,Concentration of IL-4 (pico-gram/ml),IL-4 [1]; brazilin 30 μM + PMA + cAMP,18.71 ± 1.206 pico-gram/ml
same,production of IL-4 cytokine,"IL-4 [2]; BALB/c mice, result in words",inhibited
same,IL-4 concentration (pico-gram/ml),IL-4 [2]; High dose (430 μg/mice),23.01 ± 2.327 pico-gram/ml
same,IL-4 concentration (pico-gram/ml),IL-4 [2]; Low dose (43 μg/mice),36.76 ± 5.490 pico-gram/ml
same,pulmonary resistance Rrs (cm H2O/ml),"mice with asthma; methacholine 3.125 mg/ml, High dose (430 μg/mice)",2.535 ± 0.1251 cm H2O/ml
same,pulmonary resistance Rrs (cm H2O/ml),"mice with asthma; methacholine 3.125 mg/ml, Low dose (43 μg/mice)",2.237 ± 0.1567 cm H2O/ml
same,pulmonary resistance Rrs (cm H2O/ml),"mice with asthma; methacholine 6.25 mg/ml, High dose (430 μg/mice)",2.680 ± 0.1676 cm H2O/ml
same,pulmonary resistance Rrs (cm H2O/ml),"mice with asthma; methacholine 6.25 mg/ml, Low dose (43 μg/mice)",2.206 ± 0.0665 cm H2O/ml
same,pulmonary resistance Rrs (cm H2O/ml),"mice with asthma; methacholine 12.5 mg/ml, High dose (430 μg/mice)",3.247 ± 0.1368 cm H2O/ml
same,pulmonary resistance Rrs (cm H2O/ml),"mice with asthma; methacholine 12.5 mg/ml, Low dose (43 μg/mice)",2.432 ± 0.1259 cm H2O/ml
same,pulmonary resistance Rrs (cm H2O/ml),"mice with asthma; methacholine 25 mg/ml, High dose (430 μg/mice)",3.691 ± 0.1542 cm H2O/ml
same,pulmonary resistance Rrs (cm H2O/ml),"mice with asthma; methacholine 25 mg/ml, Low dose (43 μg/mice)",2.869 ± 0.1831 cm H2O/ml
same,airway resistance of the mice,"mice with asthma; methacholine challenge, BALB/c mice, result in words",reduced
